According to publication PMC4171615, “Discovery of selective inhibitors of Glutaminase-2, which inhibit mTORC1, activate autophagy and inhibit proliferation in cancer cells” (Oncotarget, 2014):
Positions count from the first letter of the chain named.

How the values were obtained:
[1] = molecular target: T1, KGA_F318Y/F322S (Homo sapiens, UniProt O94925, F318Y/F322S); assay: Glutaminase activity assay, KGA mutant F318Y/F322S; type: biochemical
T1 construct: a KGA cDNA fragment of 1644 bp (residues Leu123-Leu669); His-tag (N); made in house; host or cells: Escherichia coli
T1 sequence (O94925 123-669 F318Y/F322S): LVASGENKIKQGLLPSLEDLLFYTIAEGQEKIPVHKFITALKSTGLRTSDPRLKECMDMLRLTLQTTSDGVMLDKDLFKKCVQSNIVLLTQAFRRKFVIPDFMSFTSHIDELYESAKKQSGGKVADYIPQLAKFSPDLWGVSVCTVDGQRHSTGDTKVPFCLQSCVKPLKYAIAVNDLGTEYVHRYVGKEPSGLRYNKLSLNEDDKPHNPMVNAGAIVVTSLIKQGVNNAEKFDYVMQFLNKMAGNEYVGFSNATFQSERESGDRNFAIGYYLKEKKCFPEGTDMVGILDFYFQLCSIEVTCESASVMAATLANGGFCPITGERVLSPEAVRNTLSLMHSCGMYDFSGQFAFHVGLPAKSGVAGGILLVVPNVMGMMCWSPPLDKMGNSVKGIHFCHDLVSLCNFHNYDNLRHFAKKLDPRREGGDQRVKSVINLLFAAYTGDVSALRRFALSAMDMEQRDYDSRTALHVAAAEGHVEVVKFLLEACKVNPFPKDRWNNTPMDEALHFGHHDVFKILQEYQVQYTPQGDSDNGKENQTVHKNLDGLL
Procedure: (§1) Human glutaminase activity was measured using a two-step assay as described previously. A microtiter assay format was used to facilitate the collection of multiple data points. […] Samples were incubated at 25°C for 10 min and then 10 μl of 200 mM glutamine were added to the reaction mix. After adding glutamine, the reactions were incubated at 37°C for 60 min and then quenched by the addition of 10 μl of 0.6 M HCl. Subsequently, 100 μl of a second reaction mixture (3.7 units of purified bovine liver glutamate dehydrogenase, 160 mM Tris/acetate [pH 9.4], 400 mM hydrazine, 5 mM ADP and 2 mM NAD^+) was added to the stopped first reaction mixture and incubated for 30 min at 25°C. The absorbance at 340 nm was measured using a Wallac Victor2V plate reader (PerkinElmer), fitted with a 340 nm excitation filter. Sample absorbance was measured against a blank, containing no human glutaminase.
(§2) Site-directed mutagenesis was performed on the pET28a(+)-GAB or pET28a(+)-KGA plasmids using PfuUltra II Fusion HS DNA polymerase (Agilent Technologies) to create the GAB and KGA mutants. The deep view program (Version 3.7) of the Swiss-MODEL server was used to generate the three dimensional structure of homologous modeled GAB. Using the integrated sequence alignment tools and structural superimposition algorithms, the target sequence was mapped on the modeling templates.

[2] = molecular target: T2, KGA_Y394L (Homo sapiens, UniProt O94925, Y394L); assay: Glutaminase activity assay, KGA mutant Y394L; type: biochemical
T2 construct: a KGA cDNA fragment of 1644 bp (residues Leu123-Leu669); His-tag (N); made in house; host or cells: Escherichia coli
T2 sequence (O94925 123-669 Y394L): T1 sequence (O94925 123-669 F318Y/F322S) with Y196F, S200F, Y272L
Procedure: as §1, §2

CCCCCCCCCCCCCC(CC1=CC(=O)C=C(OC)C1=O)OC(C)=O (centres unmarked) [AV-1]
IC50 [1]: 2400 nM
IC50 [2]: 1400 ± 200 nM
